{"source": "patent US10081737B2", "about": "“Method for producing curing agent of coating and its application on coating” (SHANGHAI YAO HE BIOCHEMICAL TECHNOLOGY CO., LTD., priority 2016, dated 2018)", "format_in_all_cases": "physicochemical", "key": {"[1]": {"assay": "Neutral salt-spray tests, 300 h, on coating films", "details": "corrosion of the coating film; cell text wraps over r6-r8 (Slight corrosion / No corrosion)", "protocol": "(§1) To verify properties of the product of the invention, APLUS101, APLUS102, HAA and TGIC are individually mixed with the polyester powder and additives. These curing agents are added in amounts of 2-8 wt % of the polyester powder coatings.\n(§2) The coatings are tested in the form of films and the tests are carried out in the same conditions."}, "[2]": {"assay": "MEK resistance tests, 24 h, gloss loss of coating films", "details": "coating film containing the named curing agent", "protocol": "as §1, §2"}, "[3]": {"assay": "QUV-A tests, 500 h, gloss retention of coating films", "details": "coating film containing the named curing agent", "protocol": "as §1, §2"}, "[4]": {"assay": "Flow and leveling of the powder coatings", "details": "polyester powder coating containing the named curing agent", "protocol": "as §1, §2"}, "[5]": {"assay": "Heat resistance of coating films, 220° C., 15 min", "details": "color difference compared with the color at 200° C., 10 min; less color differences indicate better properties", "protocol": "as §1, §2"}, "[6]": {"assay": "Gloss of the polyester powder coating films", "details": "polyester powder coating film containing the named curing agent (compositions of Table 1)", "protocol": "as §1, §2"}}, "data": [{"smiles": "O=C(CCCCC(=O)N(CCO)CCO)N(CCO)CCO", "note": "[HAA, N,N,N′,N′-Tetrakis (2-hydroxyethyl)adipamide]", "values": [{"measurement": "Neutral salt-spray tests, 300 h", "setting": "[1]", "value": "Slight"}, {"measurement": "MEK resistance tests, 24 h, gloss loss (%)", "setting": "[2]", "value": 8.16, "unit": "%"}, {"measurement": "QUV-A tests, 500 h, gloss retention (%)", "setting": "[3]", "value": 72.7, "unit": "%"}, {"measurement": "Flow and leveling (cm)", "setting": "[4]", "value": 3.1, "unit": "cm"}, {"measurement": "Heat resistance, 220° C., 15 min", "setting": "[5]", "value": 1.15}, {"measurement": "Gloss of the films", "setting": "[6]", "value": 84.5}]}, {"smiles": "O=c1n(CC2CO2)c(=O)n(CC2CO2)c(=O)n1CC1CO1", "note": "(stereo not drawn) [TGIC, 1,3,5-Triglycidyl isocyanurate]", "values": [{"measurement": "Neutral salt-spray tests, 300 h", "setting": "[1]", "value": "Slight"}, {"measurement": "MEK resistance tests, 24 h, gloss loss (%)", "setting": "[2]", "value": 10.25, "unit": "%"}, {"measurement": "QUV-A tests, 500 h, gloss retention (%)", "setting": "[3]", "value": 75.8, "unit": "%"}, {"measurement": "Flow and leveling (cm)", "setting": "[4]", "value": 3.8, "unit": "cm"}, {"measurement": "Heat resistance, 220° C., 15 min", "setting": "[5]", "value": 0.59}, {"measurement": "Gloss of the films", "setting": "[6]", "value": 87.6}]}]}
